Experimental data as given in patent publication EP4596574A1, “GLP-1/GCG/GIP TRIPLE-RECEPTOR AGONIST AND USE THEREOF” (Sunshine Lake Pharma Co., Ltd., priority 2022, dated 2024).
Marks after values point to notes of the source that are not given here.

Key:
GLP-1R = molecular target: T1, GLP-1R (Homo sapiens, UniProt P43220); assay: In vitro cell activity, cAMP production in HEK293 cells expressing GLP-1R; type: cell-based
T1 construct: expressed in transfected cells; host or cells: HEK293 (HEK293-GLP-1R)
T1 sequence (P43220 24-463, species assumed): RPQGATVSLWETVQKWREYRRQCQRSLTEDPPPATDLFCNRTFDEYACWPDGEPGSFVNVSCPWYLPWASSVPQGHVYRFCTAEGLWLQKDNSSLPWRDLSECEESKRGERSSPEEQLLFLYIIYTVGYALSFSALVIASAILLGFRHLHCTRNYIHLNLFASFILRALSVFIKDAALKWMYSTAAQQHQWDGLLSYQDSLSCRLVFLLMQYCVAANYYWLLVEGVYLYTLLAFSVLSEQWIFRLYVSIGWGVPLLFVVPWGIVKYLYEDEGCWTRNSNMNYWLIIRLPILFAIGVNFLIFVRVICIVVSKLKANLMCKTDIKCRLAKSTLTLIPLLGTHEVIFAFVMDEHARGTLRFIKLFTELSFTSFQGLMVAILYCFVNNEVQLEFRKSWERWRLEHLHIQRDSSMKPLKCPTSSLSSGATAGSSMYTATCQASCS
Method in brief: (§1)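 HEK293 transfectants, 4×10^5 cells/mL, 384-well. Detection: cAMP-d2 + anti-cAMP cryptate 1:1, RT 1 h dark or 4 °C o/n. Read 665/620 nm; 4-parameter nonlinear fit → EC50.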

GCGR = molecular target: T2, GCGR (Homo sapiens, UniProt P47871); assay: In vitro cell activity, cAMP production in HEK293 cells expressing GCGR; type: cell-based
T2 construct: expressed in transfected cells; host or cells: HEK293 (HEK293-GCGR)
T2 sequence (P47871 26-477, species assumed): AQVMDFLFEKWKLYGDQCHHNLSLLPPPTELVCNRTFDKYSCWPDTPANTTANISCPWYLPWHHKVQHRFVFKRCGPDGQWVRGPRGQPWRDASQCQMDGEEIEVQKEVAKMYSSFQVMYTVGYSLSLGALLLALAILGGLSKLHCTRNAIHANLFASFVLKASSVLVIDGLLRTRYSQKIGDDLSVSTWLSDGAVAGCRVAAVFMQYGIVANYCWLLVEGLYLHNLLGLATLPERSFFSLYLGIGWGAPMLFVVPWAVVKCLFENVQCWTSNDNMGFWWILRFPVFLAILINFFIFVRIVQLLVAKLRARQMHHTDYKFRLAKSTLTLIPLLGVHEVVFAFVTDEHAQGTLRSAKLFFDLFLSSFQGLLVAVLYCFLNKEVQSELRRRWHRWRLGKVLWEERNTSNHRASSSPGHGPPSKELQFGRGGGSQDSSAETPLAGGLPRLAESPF
Method in brief: as §1

GIPR = molecular target: T3, GIPR (Homo sapiens, UniProt P48546); assay: In vitro cell activity, cAMP production in HEK293 cells expressing GIPR; type: cell-based
T3 construct: expressed in transfected cells; host or cells: HEK293 (HEK293-GIPR)
T3 sequence (P48546 22-466): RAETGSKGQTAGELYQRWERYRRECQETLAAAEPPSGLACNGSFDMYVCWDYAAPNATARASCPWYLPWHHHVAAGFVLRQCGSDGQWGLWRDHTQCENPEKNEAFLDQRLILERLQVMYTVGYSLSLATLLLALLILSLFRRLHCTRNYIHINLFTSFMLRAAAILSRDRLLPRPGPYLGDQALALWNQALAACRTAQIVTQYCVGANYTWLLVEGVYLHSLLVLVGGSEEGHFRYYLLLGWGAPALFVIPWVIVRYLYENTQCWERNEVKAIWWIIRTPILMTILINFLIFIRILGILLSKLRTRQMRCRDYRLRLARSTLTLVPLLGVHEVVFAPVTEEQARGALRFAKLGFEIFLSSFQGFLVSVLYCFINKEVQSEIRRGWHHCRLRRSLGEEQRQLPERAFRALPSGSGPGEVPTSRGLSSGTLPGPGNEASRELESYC
Method in brief: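 HEK293 cells expressing human GIPR, thawed and diluted to 4×10^5 cells/mL, are stimulated with test compound. cAMP is measured by HTRF competition between cAMP-d2 and anti-cAMP cryptate. EC50 comes from a four-parameter nonlinear fit of signal ratio against concentration.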

[1] = Glucose tolerance assessment in normal C57BL/6 mice (Example 4); type: in vivo; conditions: for Blood glucose level (mM) 15 min / Blood glucose level (mM) 30 min / Blood glucose level (mM) 60 min / Blood glucose level (mM) 90 min / Blood glucose level (mM) 0 min / AUC0-90 min: 3 nmol/kg s.c. single dose, 24 h after administration; for Blood glucose level (mM) 15 min: 15 min after 2 g/kg glucose i.p.; for Blood glucose level (mM) 30 min: 30 min after 2 g/kg glucose i.p.; for Blood glucose level (mM) 60 min: 60 min after 2 g/kg glucose i.p.; for Blood glucose level (mM) 90 min: 90 min after 2 g/kg glucose i.p.; for Blood glucose level (mM) 0 min: basal before 2 g/kg glucose i.p.; for AUC0-90 min: blood glucose AUC, 2 g/kg glucose i.p.
Procedure: (§2) Twelve hours after the single administration, the animals were fasted for 12 hours and had free access to water. Blood was collected from the tail vein to determine the basal blood glucose level of each group of animals, and then 2 g/kg glucose solution was injected intraperitoneally. Blood glucose was tested at 15, 30, 60, and 90 min after glucose administration. The blood glucose concentration-time curve was drawn according to the blood glucose values measured at different time points, and the AUC0~90min of each dose group was calculated as shown in Table 4 and Figure 1. Table 4: Effects of single administration of HEC-PT74, HEC-PT75, HEC-PT77, HEC-PT78, HEC-PT80, and HEC-PT82 on glucose tolerance in normal C57 mice 24 h after administration

[2] = In vivo efficacy evaluation in db/db mouse model (blood glucose); set-up: species or system db/db mice
Procedure: Blood glucose was tested before each administration.

[3] = Glucose tolerance assessment in normal C57BL/6 mice (Example 5); type: in vivo; conditions: 3 nmol/kg s.c. single dose, 24 h after administration
Procedure: as §2, with “Table 5” for “Table 4”, “Figure 2.” for “Figure 1.”, “Table 5:” for “Table 4:”, “of HEC-PT86, HEC-PT96, HEC-PT112, HEC-PT113, HEC-PT114,” for “of HEC-PT74, HEC-PT75, HEC-PT77, HEC-PT78, HEC-PT80,”, “and HEC-PT119” for “and HEC-PT82”

CC[C@H](C)[C@H](NC(=O)[C@H](Cc1ccccc1)NC(=O)[C@H](CCC(=O)O)NC(=O)[C@H](CCCNC(=N)N)NC(=O)[C@H](CCC(N)=O)NC(=O)[C@H](C)NC(=O)[C@H](CCCCNC(=O)COCCOCCNC(=O)CC[C@H](NC(=O)CCCCCCCCCCCCCCCCC(=O)O)C(=O)O)NC(=O)[C@H](CCC(=O)O)NC(=O)[C@H](CC(=O)O)NC(=O)[C@H](CC(C)C)NC(=O)[C@H](CC(C)C)NC(=O)[C@@H](NC(=O)[C@H](CO)NC(=O)[C@H](Cc1ccc(O)cc1)NC(=O)[C@H](CC(=O)O)NC(=O)[C@H](CO)NC(=O)[C@@H](NC(=O)[C@](C)(Cc1ccccc1F)NC(=O)[C@@H](NC(=O)CNC(=O)[C@H](Cc1c[nH]cn1)NC(=O)C(C)(C)NC(=O)[C@@H](N)Cc1ccc(O)cc1)[C@@H](C)O)[C@@H](C)O)[C@@H](C)CC)C(=O)N[C@@H](CCC(=O)O)C(=O)N[C@@H](Cc1c[nH]c2ccccc12)C(=O)N[C@@H](CC(C)C)C(=O)N[C@@H](CC(C)C)C(=O)N[C@@H](C)C(=O)NCC(=O)NCC(=O)N1CCC[C@H]1C(=O)N[C@@H](CO)C(=O)N[C@@H](CO)C(=O)NCC(=O)N[C@@H](C)C(=O)N1CCC[C@H]1C(=O)N1CCC[C@H]1C(=O)N1CCC[C@H]1C(=O)N[C@@H](CO)C(=O)O [HEC-PT74]
EC50 (GLP-1R): 0.104 nM
EC50 (GCGR): 0.319 nM
EC50 (GIPR): 0.0043 nM
Blood glucose level (mM) 15 min [1]: 14.0 ± 4.3 mM
Blood glucose level (mM) 30 min [1]: 10.0 ± 3.1 mM
Blood glucose level (mM) 60 min [1]: 8.4 ± 2.5 mM
Blood glucose level (mM) 90 min [1]: 7.1 ± 2.3 mM
Blood glucose level (mM) 0 min [1]: 4.6 ± 1.0 mM
AUC0-90 min [1]: 827.3±234.6^a
blood glucose after administration ([2]; db/db mice, 10 nmol/kg): significantly reduce blood glucose
Random blood glucose (mM) D0 ([2]; db/db mice, 10 nmol/kg s.c. once every three days, D0 (before first dose)): 25.5 ± 4.7 mM
Random blood glucose (mM) D3 ([2]; db/db mice, 10 nmol/kg s.c. once every three days, D3): 13.5 ± 4.4 mM
Random blood glucose (mM) D4 ([2]; db/db mice, 10 nmol/kg s.c. once every three days, D4): 20.0 ± 2.9 mM
Random blood glucose (mM) D5 ([2]; db/db mice, 10 nmol/kg s.c. once every three days, D5): 22.1 ± 3.9 mM
Random blood glucose (mM) D6 ([2]; db/db mice, 10 nmol/kg s.c. once every three days, D6): 21.1 ± 3.0 mM
Random blood glucose (mM) D7 ([2]; db/db mice, 10 nmol/kg s.c. once every three days, D7): 22.7 ± 2.9 mM
Random blood glucose (mM) D10 ([2]; db/db mice, 10 nmol/kg s.c. once every three days, D10): 12.1 ± 2.1 mM
Random blood glucose (mM) D13 ([2]; db/db mice, 10 nmol/kg s.c. once every three days, D13): 12.5 ± 2.7 mM
Random blood glucose (mM) D16 ([2]; db/db mice, 10 nmol/kg s.c. once every three days, D16): 12.1 ± 2.9 mM
Random blood glucose (mM) D19 ([2]; db/db mice, 10 nmol/kg s.c. once every three days, D19): 16.0 ± 2.3 mM
Random blood glucose (mM) D22 ([2]; db/db mice, 10 nmol/kg s.c. once every three days, D22): 13.9 ± 3.2 mM
Random blood glucose (mM) D25 ([2]; db/db mice, 10 nmol/kg s.c. once every three days, D25): 16.3±4.2^a mM
Random blood glucose (mM) 6 h ([2]; db/db mice, 10 nmol/kg s.c., 6 h): 16.7 ± 5.1 mM
Random blood glucose (mM) 24 h ([2]; db/db mice, 10 nmol/kg s.c., 24 h): 7.3 ± 1.6 mM
Random blood glucose (mM) 48 h ([2]; db/db mice, 10 nmol/kg s.c., 48 h): 9.2 ± 2.9 mM
time at which blood glucose levels reached the lowest level ([2]; db/db mice, 10 nmol/kg, after administration): about 24 hours
blood glucose lowering after long-term administration compared with LY3298176 ([2]; db/db mice, long-term repeated administration): not inferior to the positive control LY3298176
blood glucose reducing effect after administration compared with LY3298176 ([2]; db/db mice, same dose 10 nmol/kg): slightly better than the positive control LY3298176
blood glucose level after long-term administration ([2]; type II diabetes model db/db mice): significantly improve the blood glucose level

CC[C@H](C)[C@H](NC(=O)[C@H](Cc1ccccc1)NC(=O)[C@H](CCC(=O)O)NC(=O)[C@H](CCC(N)=O)NC(=O)[C@H](CCC(N)=O)NC(=O)[C@H](C)NC(=O)[C@H](CCCCNC(=O)COCCOCCNC(=O)CC[C@H](NC(=O)CCCCCCCCCCCCCCCCC(=O)O)C(=O)O)NC(=O)[C@H](CCC(=O)O)NC(=O)[C@H](CC(=O)O)NC(=O)[C@H](CC(C)C)NC(=O)[C@H](CC(C)C)NC(=O)[C@@H](NC(=O)[C@H](CO)NC(=O)[C@H](Cc1ccc(O)cc1)NC(=O)[C@H](CC(=O)O)NC(=O)[C@H](CO)NC(=O)[C@@H](NC(=O)[C@](C)(Cc1ccccc1F)NC(=O)[C@@H](NC(=O)CNC(=O)[C@H](Cc1c[nH]cn1)NC(=O)C(C)(C)NC(=O)[C@@H](N)Cc1ccc(O)cc1)[C@@H](C)O)[C@@H](C)O)[C@@H](C)CC)C(=O)N[C@@H](CCC(=O)O)C(=O)N[C@@H](Cc1c[nH]c2ccccc12)C(=O)N[C@@H](CC(C)C)C(=O)N[C@@H](CC(C)C)C(=O)N[C@@H](C)C(=O)NCC(=O)NCC(=O)N1CCC[C@H]1C(=O)N[C@@H](CO)C(=O)N[C@@H](CO)C(=O)NCC(=O)N[C@@H](C)C(=O)N1CCC[C@H]1C(=O)N1CCC[C@H]1C(=O)N1CCC[C@H]1C(=O)N[C@@H](CO)C(=O)O [HEC-PT80]
EC50 (GLP-1R): 0.341 nM
EC50 (GCGR): 1.27 nM
EC50 (GIPR): 0.0506 nM
Blood glucose level (mM) 15 min [1]: 11.1 ± 2.0 mM
Blood glucose level (mM) 30 min [1]: 9.3 ± 1.7 mM
Blood glucose level (mM) 60 min [1]: 7.2 ± 1.0 mM
Blood glucose level (mM) 90 min [1]: 5.5 ± 0.5 mM
Blood glucose level (mM) 0 min [1]: 4.6 ± 1.1 mM
improvement of glucose tolerance compared with LY3298176 ([1]; 24 hours after a single administration, 3 nmol/kg): more effective in improving glucose tolerance than the positive control LY3298176
AUC0-90 min [1]: 707.6±98.4^a

CC[C@H](C)[C@H](NC(=O)[C@H](CCCCN)NC(=O)[C@H](CC(=O)O)NC(=O)[C@H](CCCCNC(=O)COCCOCCNC(=O)CC[C@H](NC(=O)CCCCCCCCCCCCCCCCC(=O)O)C(=O)O)NC(=O)[C@H](CC(C)C)NC(=O)[C@@H](NC(=O)[C@H](CO)NC(=O)[C@H](Cc1ccc(O)cc1)NC(=O)[C@H](CC(=O)O)NC(=O)[C@H](CO)NC(=O)[C@@H](NC(=O)[C@](C)(Cc1ccccc1F)NC(=O)[C@@H](NC(=O)CNC(=O)[C@H](CCC(N)=O)NC(=O)C(C)(C)NC(=O)[C@@H](N)Cc1ccc(O)cc1)[C@@H](C)O)[C@@H](C)O)[C@@H](C)CC)C(=O)N[C@@H](C)C(=O)N[C@@H](CCC(N)=O)C(=O)NC(C)(C)C(=O)N[C@@H](C)C(=O)N[C@@H](Cc1ccccc1)C(=O)N[C@H](C(=O)N[C@@H](CCC(=O)O)C(=O)N[C@@H](Cc1ccc(O)cc1)C(=O)N[C@@H](CC(C)C)C(=O)N[C@@H](CC(C)C)C(=O)N[C@@H](CCC(=O)O)C(=O)NCC(=O)NCC(=O)N1CCC[C@H]1C(=O)N[C@@H](CO)C(=O)N[C@@H](CO)C(=O)NCC(=O)N[C@@H](C)C(=O)N1CCC[C@H]1C(=O)N1CCC[C@H]1C(=O)N1CCC[C@H]1C(=O)N[C@@H](CO)C(N)=O)[C@@H](C)CC [HEC-PT114]
EC50 (GLP-1R): 0.12 nM
EC50 (GCGR): 0.138 nM
EC50 (GIPR): 0.0567 nM
Blood glucose level (mM) 15 min ([3]; 15 min after 2 g/kg glucose i.p.): 13.5 ± 1.0 mM
Blood glucose level (mM) 30 min ([3]; 30 min after 2 g/kg glucose i.p.): 9.8 ± 0.8 mM
Blood glucose level (mM) 60 min ([3]; 60 min after 2 g/kg glucose i.p.): 7.9 ± 0.8 mM
Blood glucose level (mM) 90 min ([3]; 90 min after 2 g/kg glucose i.p.): 6.3 ± 0.8 mM
Blood glucose level (mM) 0 min ([3]; basal before 2 g/kg glucose i.p.): 4.9 ± 1.0 mM
AUC0-90 min ([3]; blood glucose AUC, 2 g/kg glucose i.p.): 791.0±55.3^a
